Results published in US20110288082A1, “METHODS AND COMPOSITIONS FOR INHIBITION OF THE TRANSITIONAL ENDOPLASMIC RETICULUM ATPASE” (priority 2010, published 2011).
Like-named read-outs stand apart in the source and are kept apart here.

How the values were obtained:
p97 = p97 (Homo sapiens, UniProt P55072); test: p97 ATPase assay (Kinase Glo Plus; biomol green for compounds that interfere with luciferase); format: biochemical
Procedure: Assay Buffer (20 μL of 2.5× concentration, where 1×=50 mM Tris pH 7.4, 20 mM MgCl2, 1 mM EDTA, 0.5 mM TCEP) was dispensed into each well of a 96 well plate. Purified p97 (25 μL of 50 μM) was diluted in 975 μL, of 1× Assay Buffer and 10 μL was dispensed in each well. Test compound (10 μL) or 5% DMSO (10 μL) was then added to each well and the plate was incubated at room temperature for 10 min. The ATPase assay was carried out by adding to each well 10 μL of 500 μM ATP (pH 7.5), incubating at room temperature for 60 min, and then adding 50 μL Kinase Glo Plus reagent (Promega) followed by a final 10 min incubation at room temperature in the dark. Luminescence was read on an Analyst AD (Molecular Devices). Compounds were assayed at a range of concentrations (0, 0.048, 0.24, 1.2, 6, 30 μM) in triplicate. The percent of remaining activity for each reaction was calculated using the following mathematical expression: ((Test Compound-High Control)/(Low Control-High Control))*100. Test_Compound is defined as wells containing test compound, Low_Control is defined as wells containing DMSO, High_Control is defined as wells containing no p97 protein. […] The result was expressed as mean +/− standard error. For assays with Myriad 12 and 19, 100 μL of biomol green reagent (Enzo Life Sciences) was added to each well instead of kinase Glo Plus (Promega) and absorbance at 630 nm was measured. This was done because these compounds interfered with luciferase activity. […]

[1] = system: p97-dependent Ub^G76V-GFP degradation in HeLa cells; test: Ub^G76V-GFP degradation (turn-over) assay; format: cell-based, human; conditions: Homo sapiens, HeLa
Procedure: Ub^G76V-GFP Degradation Assay
Two GFP images with 100 ms exposure time per well were acquired and the average GFP intensity per area of a HeLa cell was determined by using MetaXpress software. Mean GFP intensity of 300-500 cells was calculated using Excel. Normalized GFP intensity was calculated using the following formula: (Test compound−Background)/(Basal GFP intensity—Background). Where: Test compound is defined as Mean GFP intensity of Ub^G76V-GFP-expressing cells treated with the test compound. Background is defined as background GFP intensity of HeLa cells. Basal GFP intensity is defined as mean GFP intensity of Ub^G76V-GFP-expressing cells treated with DMSO. […] The percent of remaining k for each compound is calculated using the following formula: (Test compound/DMSO control)*100. Where: Test_compound is defined as k determined from wells containing test compound, DMSO control is defined as k determined from wells containing DMSO.

[2] = purified p97, ATP, 60 min room temperature, mean +/- standard error
[3] = read-out: IC50 (μM) Ub^G76V-GFP turn over, Ub^G76V-GFP-expressing HeLa cells, degradation rate constant k from 90 to 180 min, mean +/- standard error
[4] = read-out: IC50 (μM) Ub^G76V-GFP turn over, p97-dependent Ub^G76V-GFP degradation turn-over assay

p97, sequence (P55072 2-806 limits assumed): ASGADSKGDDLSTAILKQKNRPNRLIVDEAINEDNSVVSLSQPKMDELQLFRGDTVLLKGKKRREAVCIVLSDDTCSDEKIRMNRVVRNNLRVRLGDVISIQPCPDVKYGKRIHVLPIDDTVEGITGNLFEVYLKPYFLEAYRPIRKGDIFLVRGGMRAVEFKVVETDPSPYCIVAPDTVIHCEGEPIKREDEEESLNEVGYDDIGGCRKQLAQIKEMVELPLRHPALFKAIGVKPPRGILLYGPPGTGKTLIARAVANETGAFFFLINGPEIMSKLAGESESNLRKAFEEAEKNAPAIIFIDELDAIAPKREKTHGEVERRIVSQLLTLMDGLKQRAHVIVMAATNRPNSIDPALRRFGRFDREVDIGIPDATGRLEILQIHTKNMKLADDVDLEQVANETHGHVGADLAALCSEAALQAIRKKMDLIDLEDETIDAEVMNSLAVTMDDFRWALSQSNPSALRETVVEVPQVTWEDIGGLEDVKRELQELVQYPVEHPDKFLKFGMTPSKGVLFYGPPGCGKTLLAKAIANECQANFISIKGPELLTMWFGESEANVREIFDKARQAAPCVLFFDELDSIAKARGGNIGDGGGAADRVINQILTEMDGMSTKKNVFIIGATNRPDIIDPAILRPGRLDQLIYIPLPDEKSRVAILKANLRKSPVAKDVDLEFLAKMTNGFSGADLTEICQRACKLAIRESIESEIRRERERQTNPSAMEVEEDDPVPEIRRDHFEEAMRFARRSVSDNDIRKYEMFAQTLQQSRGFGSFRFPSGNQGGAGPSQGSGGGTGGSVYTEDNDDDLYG

| Structure (SMILES) | IC50 [1, 3] [µM] | IC50 [1, 4] [µM] | further results |
| --- | --- | --- | --- |
| Clc1ccc(CNc2nc(NCc3ccccc3)c3ccccc3n2)cc1Cl [IV-17] | 1.9 ± 0.2 |  | IC50 (p97; [2]): 3 ± 0.5 µM |
| c1ccc(CNc2nc(N3CCN(c4ccccc4)CC3)nc3ccccc23)cc1 [XLVII] |  | 35 ± 5 | IC50 (p97; p97 ATPase assay): 34 ± 11 µM |
| COc1cccc2c(NCc3ccccn3)nc(N3CCOc4ccccc43)nc12 [XII-7] | 15 ± 4 |  | IC50 (p97; [2]): 19 ± 5 µM |
| Fc1ccc(Cl)cc1Nc1nc(NCc2ccccc2)c2ccccc2n1 [II-18] | 13 ± 2 |  | IC50 (p97; [2]): 13 ± 3 µM |
| Fc1ccc(CNc2nc(-c3ccc(Cl)cc3)nc3ccccc23)cc1 [I-23] | 20 ± 5 |  | IC50 (p97; [2]): 8 ± 0.2 µM |
| Cc1cccc(C)c1OCC(=O)OCC(=O)C(C#N)=C1Nc2ccccc2N1 [XXXVI] |  | 15 ± 2 |  |
| Nc1nc(CCl)nc(Nc2cccc3ccccc23)n1 [XXX] |  | 14 ± 3 |  |
| CN(Cc1ccccc1)c1nc(-c2ccccc2)nc2ccccc12 [Cpd I-25] |  | 17 ± 5 |  |
| Cc1ccc(CNc2nc(NCc3ccccc3)c3ccccc3n2)cc1 [IV-1] | 1.5 ± 0.4 |  |  |
| Fc1cccc(Nc2nc(NCc3ccccc3)c3ccccc3n2)c1 [II-14] | 2.7 ± 0.4 |  |  |
| CCCOc1ccc(C(=O)CCC(=O)OCC(=O)C(C#N)=C2Nc3ccccc3N2)cc1 [XXXV] |  | 6.1 ± 0.6 |  |
| c1ccc(CNc2nc(Nc3ccccc3)nc3ccccc23)cc1 [II-1] | 3.1 ± 0.4 |  |  |
| COc1cccc2c(NCc3ccccn3)nc(N3CCNc4ccccc43)nc12 [XLIII] |  | 16 ± 2 |  |
| COc1cccc2c(NCc3ccccc3)nc(Nc3cccc(F)c3)nc12 [XI-17] | 4.8 ± 0.7 |  |  |
| Nc1nc(CCl)nc(N2CCc3ccccc32)n1 [XXVI] |  | 10.4 ± 1.5 |  |
| Cc1cc(C)cc(OCC(=O)OCC(=O)C(C#N)=C2Nc3ccccc3N2)c1 [XXXVII] |  | 13 ± 1.4 |  |
| COc1cccc2c(NCc3ccccc3)nc(Nc3cccc(Cl)c3)nc12 [XI-16] | 5.4 ± 1 |  |  |
| N#CC(C(=O)COC(=O)C1COc2ccccc2O1)=C1Nc2ccccc2N1 (stereo not shown) [XL] |  | 10 ± 1.4 |  |

| Structure (SMILES) | IC50 [1, 3] [µM] | IC50 [1, 4] [µM] | further results |
| --- | --- | --- | --- |
| N#CC(C(=O)COC(=O)CCC(=O)c1ccc2c(c1)OCCO2)=C1Nc2ccccc2N1 [XXXIX] |  | 6.3 ± 0.6 |  |
| FC(F)(F)c1ccc(CNc2nc(NCc3ccccc3)c3ccccc3n2)cc1 [IV-16] | 2.3 ± 0.3 |  |  |
| CCc1ccc(Nc2nc(N)nc(CCl)n2)cc1 [XXIX] |  | 18 ± 3 |  |
| COc1cccc(CNc2nc(NCc3ccccc3)c3ccccc3n2)c1 [IV-15] | 2.5 ± 0.8 |  |  |
| Nc1nc(CCl)nc(N2CCCc3ccccc32)n1 [XXVIII] |  | 17 ± 3 |  |
| Cc1ccc(-c2nc(NCc3ccccc3)c3ccc(Cl)cc3n2)cc1 [I-33] |  | 24 ± 5 |  |
| Fc1cccc(CNc2nc(NCc3ccccc3)c3ccccc3n2)c1 [IV-13] | 2.8 ± 0.4 |  |  |
| Clc1ccccc1-c1nc(NCc2ccccc2)c2ccccc2n1 [I-3] | 8 ± 3 |  |  |
| Clc1ccc2c(NCc3ccccc3)nc(-c3ccccc3)nc2c1 [Cpd I-32] |  | 12 ± 4 |  |
| Nc1nc(CCl)nc(Nc2ccc(Cl)cc2)n1 [XXXI] |  | 8 ± 2 |  |
| Nc1nc(Nc2cccc(Cl)c2)nc(C(Cl)Cl)n1 [XXVII] |  | 13 ± 3 |  |
| c1ccc(CNc2nc(N3CCCCC3)nc3ccccc23)cc1 [XXII] |  | 7.3 ± 2 |  |
| O=[N+]([O-])c1cccc(-c2nc(NCc3ccccc3)c3ccccc3n2)c1 [I-4] | 4 ± 1.6 |  |  |
| N#CC(C(=O)COC(=O)COc1ccc(Cl)cc1)=C1Nc2ccccc2N1 [XXXII] |  | 2.6 ± 0.2 |  |
| N#CC(C(=O)COC(=O)CNc1ccc(C(F)(F)F)cc1[N+](=O)[O-])=C1Nc2ccccc2N1 [XLI] |  | 6.5 ± 0.8 |  |
| N#CC(C(=O)COC(=O)c1ccccc1Cc1ccccc1)=C1Nc2ccccc2N1 [XXXIII] |  | 3.4 ± 0.6 |  |
| Clc1cccc(Nc2nc(NCc3ccccc3)c3ccccc3n2)c1 [II-13] | 7.8 ± 1.3 |  |  |
